According to the supplement of paper PMC10627819:

Columns and labels:
B. subtilis 168 [1] = experiment: fitness (endpoint OD595 vs no drug) (fraction); higher = more growth
Method in brief: (§1)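 Fitness compares growth at the stationary-phase transition with the robust mean of no-drug control wells, as a ratio of optical densities. The ratio is capped at 1. Wells of 384-well plates held 30 µl, or 55 µl for S. pneumoniae, inoculated at OD595 0.01. Readings at OD595 every 30 min for 14 h at 37 °C were corrected against the first reading.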

S. aureus DSM 20231 [2] = experiment: as above
Method in brief: as §1

S. aureus Newman [3] = experiment: as above
Method in brief: as §1

S. pneumoniae D39V [4] = experiment: as above
Method in brief: as §1

B. subtilis 168 [5] = experiment: Bliss interaction score (quartile over a dose matrix) (fitness difference); higher = more antagonism (negative = synergy)
Method in brief: (§2)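 The Bliss score is observed minus expected fitness under the product model, reported as quartiles over technical, biological and donor/recipient replicates. Fitness is the OD595 at entry into stationary phase divided by the plate's robust no-drug mean and capped at 1. Single-drug fitness was inferred from combination data.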

S. aureus DSM 20231 [6] = experiment: as above
Method in brief: as §2

S. aureus Newman [7] = experiment: as above
Method in brief: as §2

S. pneumoniae D39V [8] = experiment: as above
Method in brief: as §2
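Throughout, for Bliss interaction score (quartile over a dose matrix): first quartile when negative (synergy) and third quartile when positive (antagonism).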

CCC[C@@H]1C[C@@H](C(=O)N[C@@H]([C@H]2O[C@H](SC)[C@H](O)[C@@H](O)[C@H]2O)[C@H](C)Cl)N(C)C1 [Clindamycin] + COc1cccc2c1C(=O)c1c(O)c3c(c(O)c1C2=O)C[C@@](O)(C(=O)CO)C[C@@H]3O[C@H]1C[C@H](N)[C@H](O)[C@H](C)O1 [Doxorubicin]
fitness, B. subtilis 168 [1], one replicate
Settings	first compound 0.0039 µg/mL	first compound 0.0078 µg/mL	first compound 0.0156 µg/mL
partner 0.625 µg/mL	0.952	0.832	0.818
partner 1.25 µg/mL	≥ 1	0.858	0.793
partner 2.5 µg/mL	≥ 1	0.851	0.852

fitness
Settings	partner 0.25 µg/mL	partner 0.5 µg/mL	partner 0.625 µg/mL	partner 1 µg/mL	partner 1.25 µg/mL	partner 2.5 µg/mL
B. subtilis 168 [1], first compound 0.0625 µg/mL	–	–	0.496	–	0.482	0.394
B. subtilis 168 [1], first compound 0.125 µg/mL	–	–	0.363	–	0.408	0.3
B. subtilis 168 [1], first compound 0.25 µg/mL	–	–	0.347	–	0.364	0.214
S. aureus DSM 20231 [2], first compound 0.125 µg/mL	–	–	0.0581	–	0.0433	0.0502
S. aureus Newman [3], first compound 0.0312 µg/mL	–	–	0.641	–	0.684	0.666
S. aureus Newman [3], first compound 0.125 µg/mL	–	–	0.202	–	0.204	0.136
S. pneumoniae D39V [4], first compound 0.0125 µg/mL	0.671	0.697	–	0.759	–	–
S. pneumoniae D39V [4], first compound 0.015 µg/mL	0.751	0.746	–	0.649	–	–
S. pneumoniae D39V [4], first compound 0.025 µg/mL	0.41	0.375	–	0.439	–	–
S. pneumoniae D39V [4], first compound 0.03 µg/mL	0.588	0.576	–	0.495	–	–
S. pneumoniae D39V [4], first compound 0.05 µg/mL	0.115	0.104	–	0.131	–	–
S. pneumoniae D39V [4], first compound 0.06 µg/mL	0.299	0.288	–	0.256	–	–

Settings	Bliss interaction score
B. subtilis 168 [5]	0.0474
S. aureus DSM 20231 [6]	0.075
S. aureus Newman [7]	0.168
S. pneumoniae D39V [8]	-0.0723

CCC[C@@H]1C[C@@H](C(=O)N[C@@H]([C@H]2O[C@H](SC)[C@H](O)[C@@H](O)[C@H]2O)[C@H](C)Cl)N(C)C1 [Clindamycin] + C[C@@H]1O[C@@H]1P(=O)(O)O [Fosfomycin]
fitness, B. subtilis 168 [1], one replicate
Settings	first compound 0.0039 µg/mL	first compound 0.0078 µg/mL	first compound 0.0156 µg/mL
partner 1.562 µg/mL	0.7	0.637	0.556
partner 3.124 µg/mL	0.633	0.564	0.51
partner 6.248 µg/mL	0.55	0.549	0.45

Settings	fitness
B. subtilis 168 [1], first compound 0.0625 µg/mL, partner 1.562 µg/mL	0.493
B. subtilis 168 [1], first compound 0.0625 µg/mL, partner 3.124 µg/mL	0.419
B. subtilis 168 [1], first compound 0.0625 µg/mL, partner 6.248 µg/mL	0.208
B. subtilis 168 [1], first compound 0.125 µg/mL, partner 1.562 µg/mL	0.311
B. subtilis 168 [1], first compound 0.125 µg/mL, partner 3.124 µg/mL	0.234
B. subtilis 168 [1], first compound 0.125 µg/mL, partner 6.248 µg/mL	0.129
B. subtilis 168 [1], first compound 0.25 µg/mL, partner 1.562 µg/mL	0.226
B. subtilis 168 [1], first compound 0.25 µg/mL, partner 3.124 µg/mL	0.183
B. subtilis 168 [1], first compound 0.25 µg/mL, partner 6.248 µg/mL	0.095
S. aureus DSM 20231 [2], first compound 0.0312 µg/mL, partner 1.562 µg/mL	0.292
S. aureus DSM 20231 [2], first compound 0.0312 µg/mL, partner 3.124 µg/mL	0.104
S. aureus DSM 20231 [2], first compound 0.0625 µg/mL, partner 0.781 µg/mL	0.122
S. aureus DSM 20231 [2], first compound 0.0625 µg/mL, partner 1.562 µg/mL	0.0594
S. aureus DSM 20231 [2], first compound 0.0625 µg/mL, partner 3.124 µg/mL	0.0236
S. aureus DSM 20231 [2], first compound 0.125 µg/mL, partner 0.781 µg/mL	0.0473
S. aureus DSM 20231 [2], first compound 0.125 µg/mL, partner 1.562 µg/mL	0.048
S. aureus DSM 20231 [2], first compound 0.125 µg/mL, partner 3.124 µg/mL	0.0437
S. aureus Newman [3], first compound 0.0312 µg/mL, partner 0.781 µg/mL	0.322
S. aureus Newman [3], first compound 0.0312 µg/mL, partner 1.562 µg/mL	0.0838
S. aureus Newman [3], first compound 0.0312 µg/mL, partner 3.124 µg/mL	0.0458
S. aureus Newman [3], first compound 0.0625 µg/mL, partner 0.781 µg/mL	0.0719
S. aureus Newman [3], first compound 0.0625 µg/mL, partner 1.562 µg/mL	0.0192
S. aureus Newman [3], first compound 0.0625 µg/mL, partner 3.124 µg/mL	0.0091
S. aureus Newman [3], first compound 0.125 µg/mL, partner 0.781 µg/mL	0.0513
S. aureus Newman [3], first compound 0.125 µg/mL, partner 1.562 µg/mL	0.0428
S. aureus Newman [3], first compound 0.125 µg/mL, partner 3.124 µg/mL	0.0521
S. pneumoniae D39V [4], first compound 0.0125 µg/mL, partner 1.25 µg/mL	0.805
S. pneumoniae D39V [4], first compound 0.0125 µg/mL, partner 2.5 µg/mL	0.752
S. pneumoniae D39V [4], first compound 0.0125 µg/mL, partner 5 µg/mL	0.66
S. pneumoniae D39V [4], first compound 0.015 µg/mL, partner 1.25 µg/mL	0.787
S. pneumoniae D39V [4], first compound 0.015 µg/mL, partner 2.5 µg/mL	0.773
S. pneumoniae D39V [4], first compound 0.015 µg/mL, partner 5 µg/mL	0.736
S. pneumoniae D39V [4], first compound 0.025 µg/mL, partner 1.25 µg/mL	0.539
S. pneumoniae D39V [4], first compound 0.025 µg/mL, partner 2.5 µg/mL	0.497
S. pneumoniae D39V [4], first compound 0.025 µg/mL, partner 5 µg/mL	0.475
S. pneumoniae D39V [4], first compound 0.03 µg/mL, partner 1.25 µg/mL	0.621
S. pneumoniae D39V [4], first compound 0.03 µg/mL, partner 2.5 µg/mL	0.583
S. pneumoniae D39V [4], first compound 0.03 µg/mL, partner 5 µg/mL	0.525
S. pneumoniae D39V [4], first compound 0.05 µg/mL, partner 1.25 µg/mL	0.224
S. pneumoniae D39V [4], first compound 0.05 µg/mL, partner 2.5 µg/mL	0.203
S. pneumoniae D39V [4], first compound 0.05 µg/mL, partner 5 µg/mL	0.207
S. pneumoniae D39V [4], first compound 0.06 µg/mL, partner 1.25 µg/mL	0.368
S. pneumoniae D39V [4], first compound 0.06 µg/mL, partner 2.5 µg/mL	0.355
S. pneumoniae D39V [4], first compound 0.06 µg/mL, partner 5 µg/mL	0.291

Settings	Bliss interaction score
B. subtilis 168 [5]	0.0321
S. aureus DSM 20231 [6]	-0.075
S. aureus Newman [7]	-0.253
S. pneumoniae D39V [8]	0.11
